Results on 18 compounds are retold here after US5475007A, “1,2,3,4-tetrahydroquinoline-2,3,4-trione-3 or 4-oximes and the use thereof” (priority 1993, dated 1995).

Read-outs that look alike come from different tables or passages of the source.

For orientation: Ki means a measure of affinity in units of concentration, obtained from inhibition or displacement. One may read the IC50 as the midpoint of a concentration-inhibition curve. Lower therefore signals greater potency.

The conditions of series [1]: in words; cited from earlier work.
Series [2] concerns glycine binding site of the NMDA receptor. The note with it: cited from earlier work.
Series [3] addresses glycine binding site of the NMDA receptor (Rattus norvegicus, UniProt P35439). Put plainly: 1 μM glycine-stimulated [^3 H]-MK801 binding assay (glycine binding assay). The note with it: for potency relative to DCK: DCK = 5,7-dichlorokynurenic acid; for binding to the glycine receptor / selectivity for the glycine receptor: in words.
The nature of series [4]: mouse maximum electroshock seizure model (i.p.). Format: in vivo. To be noted: 70 mg/kg i.p. in DMSO, 1 hour before stimulus, 10 mice. The method, then:
5,7-Dichloro-1,2,3,4-tetrahydroquinoline-2,3,4-trione-3-oxime was evaluated for anticonvulsant activity after i.p. administration in the mouse maximum electroshock seizure model. Mice, 30-35 g (male) were injected i.p. with 70 mg/kg of the drug dissolved in DMSO (1 ul/g). Ten mice each were used in the drug and control groups. The control group was injected with an equal volume of DMSO. Seizures were elicited by stimulation with corneal electrodes. The stimulation parameters for eliciting the seizures were as follows: 50 mA, 60 pulses/second square wave, 0.8 ms pulse width, 0.2 sec length of stimulus. Under these conditions, 100% of control animals developed tonic hindlimb extension immediately after the corneal electrical stimulation. A Hugo Basile electroshock seizure stimulator was used for these experiments. The seizure stimulus was applied 1 hour after injection of the drug.

For series [5] the following is noted: in words; cited from earlier work. This is another data set of the same source.
For series [6] the following is noted: pigeons; cited from earlier work.
For series [7] the following is noted: cited from earlier work; for PCP-like behavioral side effects: in words.
In a further series the target is PCP receptor. The note with it: Wong et al. 1986; cited from earlier work.
[8] abbreviates: Table 1, glycine binding site, read-out: Ki Gly.

On to `O=C(O)c1cc(O)c2ccc(Cl)cc2n1` [7-Cl-kynurenic acid], for which, in series [1], the “penetration of the blood/brain barrier” value is “cannot penetrate the blood/brain barrier”. For the same compound, the “receptor binding affinity in vitro” value in series [2] (in words) is given as “relatively high receptor binding affinity in vitro”.

Take `O=C1Nc2ccccc2C(=O)C1=NO` [Compound 17a, 1,2,3,4-Tetrahydroquinoline-2,3,4-trione-3-oxime]: in series [3], affinity was put at a Ki of 20000 nM, the “potency relative to DCK” value is listed as 1.3 % of DCK, the “binding to the glycine receptor” value is recorded as “high binding” and the “selectivity for the glycine receptor” value is “highly selective”.

`NCC(=O)O` [glycine]: the Kd in series [2] (used in Cheng and Prusoff equation, read-out: known affinity of glycine for the glycine binding site) was 100 nM.

As to `O=C1Nc2cc(Cl)c(Cl)c(Cl)c2C(=O)C1=NO` [Compound 17e, 5,6,7-Trichloro-1,2,3,4-tetrahydroquinoline-2,3,4-trione-3-oxime], in series [3], the inhibition constant Ki was 50 nM and the “potency relative to DCK” value is listed as “about 400 % of DCK”.

As to `O=C1Nc2cc(Cl)cc(Cl)c2C(=O)C1=NO` [Compound 17b, 5,7-Dichloro-1,2,3,4-tetrahydroquinoline-2,3,4-trione-3-oxime], the prevention of seizures entry in series [4] was “prevented seizures from occurring in out of 10 animals”. Further, in series [3], the Ki worked out at 20 nM and the “potency relative to DCK” value is reported as 1126 % of DCK. Moreover, the “times more active than the unsubstituted compound 17a” value in series [3] (Ki ratio versus 17a) was “about 1000 times”.

For the compound `O=C1Nc2ccc(Cl)c(Cl)c2C(=O)C1=NO` [Compound 17d, 5,6-Dichloro-1,2,3,4-tetrahydroquinoline-2,3,4-trione-3-oxime], in series [3], the Ki came to 360 nM and the “potency relative to DCK” value was “about 55 % of DCK”.

Consider `COc1ccc2c(c1)[C@]13CCCC[C@@H]1[C@H](C2)N(C)CC3` [dextromethorphan], for which the neuroprotective efficacy result in series [5] was “neuroprotective efficacy both in vitro and in vivo”.

`c1ccc(C2(N3CCCCC3)CCCCC2)cc1` [PCP, phencyclidine]: the katalepsy result in series [6] is given as “characteristic katalepsy in pigeons”. For the same compound, in series [7] (rodents), the “behavioral excitation (hyperlocomotion)” value is recorded as “behavioral excitation”. Also, the neuroprotective efficacy result in series [5] was “neuroprotective efficacy both in vitro and in vivo”.

`O=C(O)c1cc2ccccc2[nH]1` [indole-2-carboxylic acid]: the “penetration of the blood/brain barrier” value in series [1] is reported as “cannot penetrate the blood/brain barrier”. Also, in series [2] (in words), the “receptor binding affinity in vitro” value is “relatively high receptor binding affinity in vitro”.

For the compound `C[C@]12N[C@H](Cc3ccccc31)c1ccccc12` [MK-801], the “PCP-like behavioral side effects” value in series [7] is “adverse PCP-like behavioral side effects”. Further, the Kd at PCP receptor is about 3 nM. Besides, the neuroprotective efficacy result in series [5] is “neuroprotective efficacy both in vitro and in vivo”.

For the compound `NC1CCN(O)C1=O` (racemic) [HA-966], the “penetration of the blood/brain barrier” value in series [1] is reported as “sufficiently penetrates the blood/brain barrier”. In addition, the “agonism and affinity at the glycine binding site” value in series [2] (in words) is “partial agonist with micromolar affinity for the glycine binding site”.

With `O=C(O)[C@@H]1C[C@H](CP(=O)(O)O)CCN1` [CGS 19755], the “PCP-like behavioral side effects” value in series [7] is “adverse PCP-like behavioral side effects”. Further, the neuroprotective efficacy entry in series [5] is “have neuroprotective efficacy”.

For `CNC1(c2ccccc2Cl)CCCCC1=O` (centres unmarked) [ketamine], the neuroprotective efficacy entry in series [5] was “neuroprotective efficacy both in vitro and in vivo”.

With `CC(=O)ON=C1C(=O)Nc2cc(Cl)cc(Cl)c2C1=O` [Compound 18b, 5,7-Dichloro-1,2,3,4-tetrahydroquinoline-2,3,4-trione-3-acetyloxime], in series [3], the “potency relative to DCK” value is recorded as 142 % of DCK. The inhibition constant Ki in series [3] (setting [8]) is 150 nM; in series [3] (glycine/NMDA receptor, read-out: Ki value), 160 nM.

As for `O=C1Nc2cc(Cl)c(Cl)cc2C(=O)C1=NO` [Compound 17c, 6,7-Dichloro-1,2,3,4-tetrahydroquinoline-2,3,4-trione-3-oxime], in series [3], the affinity, expressed as Ki, was 50 nM and the “potency relative to DCK” value is 439 % of DCK.

Regarding `O=C(O)[C@@H]1C[C@H]2C[C@@H](CP(=O)(O)O)CC[C@H]2CN1` [LY274614], the neuroprotective efficacy entry in series [5] was “have neuroprotective efficacy”.

Take `O=C(O)c1cc(O)c2c(Cl)cc(Cl)cc2n1` [5,7-dichlorokynurenic acid]: the “receptor binding affinity in vitro” value in series [2] (in words) is reported as “relatively high receptor binding affinity in vitro”.

Compound `O=C1Nc2ccccc2C(=NO)C1=O` [Compound 14a, 1,2,3,4-Tetrahydroquinoline-2,3,4-trione-4-oxime] came in with an IC50 in series [3] (1 μM glycine) of 18400 nM. In series [3], the “potency relative to DCK” value is 14 % of DCK, the “binding to the glycine receptor” value is reported as “high binding” and the “selectivity for the glycine receptor” value is given as “highly selective”. Moreover, the Ki in series [3] (setting [8]) stood at 1700 nM.
